This test deals with Lichen Ruber Planus. Description: Case study: patient with Lichen ruber planus. Type of test: in vivo, human. As to conditions: Patient 4; several years, orally and by injection to local inflammation areas. As for the experimental part: During the last five years reports have been received from patients taking the commercial dietary supplement capsules of the algal meal of Haematococcus pluvialis, Astaxin®, containing 4 mg astaxanthin. The daily doses recommended as an antioxidant is one capsule per day.
Patient 4. […] The symptoms of the disease were inter alia open wounds which had not healed […] had been treated with anti-inflammatory agents, such as cortisone, for several years, orally and also by injection directly to the local inflammation areas. […] They started to take 4 capsules of Astaxin per day, and after some weeks visible alleviation of the symptoms started to show up. […] During this period, the patient […] phased out the cortisone treatment. The dose of Astaxin was lowered to 2 capsules per day when they were asymtomatic. However, the symptoms returned in connection with a common cold.

With `C[C@]12CCC(=O)C=C1CC[C@@H]1[C@@H]2C(=O)C[C@@]2(C)[C@H]1CC[C@]2(O)C(=O)CO` [cortisone], the “result of previous anti-inflammatory treatment” value is listed as “has not led to any result”.

Values taken from patent publication US6773708B1, “Use of xanthophylls, astaxanthin e.g., for treatment of autoimmune diseases, chronic viral and intracellular bacterial infections” (AstaReal AB, priority 1999, dated 2004).
